Measurements published in patent US10501518B2 (priority 2013, dated 2019).
Like-named read-outs stand apart in the source and are kept apart here.

Legend:
R^0 form of rat PTHR-1 = target: T1, R^0 form of rat PTHR-1 (Rattus norvegicus, UniProt P25961); experiment: Radio-ligand competition binding to R^0 form of rat PTHR-1; settings: for R^0/RG: ratio of R^0 to RG IC50, rat PTHR-1; for affinity for the R^0 state of rPTHR-1, in words: compared with PTH(1-34)
T1 construct: expressed in transfected cells; host or cells: COS-7
T1 sequence (P25961 27-591): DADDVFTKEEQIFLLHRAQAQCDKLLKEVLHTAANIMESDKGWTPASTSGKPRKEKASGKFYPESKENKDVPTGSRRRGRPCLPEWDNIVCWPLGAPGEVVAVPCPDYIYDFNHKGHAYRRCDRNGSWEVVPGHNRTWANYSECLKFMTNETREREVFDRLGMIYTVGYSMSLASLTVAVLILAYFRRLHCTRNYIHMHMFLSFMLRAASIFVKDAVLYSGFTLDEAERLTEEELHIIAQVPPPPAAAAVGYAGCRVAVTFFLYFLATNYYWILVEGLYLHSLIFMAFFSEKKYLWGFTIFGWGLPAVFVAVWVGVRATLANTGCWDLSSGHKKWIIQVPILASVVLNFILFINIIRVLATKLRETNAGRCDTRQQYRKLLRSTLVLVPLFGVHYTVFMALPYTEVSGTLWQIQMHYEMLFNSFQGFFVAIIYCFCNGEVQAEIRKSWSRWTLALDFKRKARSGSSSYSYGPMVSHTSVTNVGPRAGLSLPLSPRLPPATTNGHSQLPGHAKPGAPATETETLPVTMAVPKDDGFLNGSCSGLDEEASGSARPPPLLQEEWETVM
Description: (§1) Data are means (±SEM) of n≥4 experiments, each performed in duplicate.

R^0 form of human PTHR-1 = target: T2, R^0 form of human PTHR-1 (Homo sapiens, UniProt Q03431); experiment: Radio-ligand competition binding to R^0 form of human PTHR-1 (COS-7 membranes, 125I-PTH(1-34) tracer, GTPγS); settings: for R^0/RG: Table 4, ratio of R^0 to RG IC50, human PTHR-1; for affinity for the R^0 state of hPTHR-1, in words: compared with PTH(1-34)
T2 construct: expressed in transfected cells; host or cells: COS-7
T2 sequence (Q03431 27-593): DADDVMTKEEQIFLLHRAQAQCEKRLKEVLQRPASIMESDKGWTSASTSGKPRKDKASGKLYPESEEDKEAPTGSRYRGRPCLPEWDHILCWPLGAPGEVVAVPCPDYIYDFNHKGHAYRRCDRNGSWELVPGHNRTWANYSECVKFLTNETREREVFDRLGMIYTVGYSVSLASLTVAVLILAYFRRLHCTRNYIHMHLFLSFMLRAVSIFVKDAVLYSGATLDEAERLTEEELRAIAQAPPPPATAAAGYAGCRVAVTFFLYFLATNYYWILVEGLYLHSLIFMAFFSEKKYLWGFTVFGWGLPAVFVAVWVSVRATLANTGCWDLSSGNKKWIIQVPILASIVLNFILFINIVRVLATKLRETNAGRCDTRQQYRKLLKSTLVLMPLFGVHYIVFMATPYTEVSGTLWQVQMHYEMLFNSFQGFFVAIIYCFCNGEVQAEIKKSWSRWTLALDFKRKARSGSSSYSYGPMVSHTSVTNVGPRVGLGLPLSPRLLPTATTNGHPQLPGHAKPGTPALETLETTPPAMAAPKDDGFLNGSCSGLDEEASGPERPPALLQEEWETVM
Description: as §1

trypsin = target: T3, trypsin (Bos taurus, UniProt P00760); experiment: Protease stability (trypsin, HPLC assay); type: in vitro ADME, bovine; settings: 40 μM peptide, 5 μg/mL trypsin, TBS, room temperature
T3 construct: purchased Sigma Aldrich (St. Louis, Mo.); host or cells: bovine pancreas
T3 sequence (P00760 24-246): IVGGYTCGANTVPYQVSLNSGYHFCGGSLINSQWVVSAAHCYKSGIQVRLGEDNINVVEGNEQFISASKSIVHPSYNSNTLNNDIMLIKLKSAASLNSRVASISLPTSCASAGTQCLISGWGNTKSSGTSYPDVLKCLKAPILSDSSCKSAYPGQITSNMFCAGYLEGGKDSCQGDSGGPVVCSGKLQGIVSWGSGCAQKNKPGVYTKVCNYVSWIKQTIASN
Experimental: Locations of β^3 residues in B5 and D6 are indicated by highlighted residues. Solutions of 40 μM peptide in TBS were incubated at room temperature with 5 μg/mL trypsin. Vertical lines indicate observation by MALDI-MS of one or both products consistent with hydrolysis of the backbone amide bond between the noted residues. […] Each data point represents the average of measurements from duplicate experiments, with error bars corresponding to the standard deviation.
An HPLC assay was used to assess proteolytic stability.^30, 32 Peptide concentration was determined by UV-Vis spectroscopy (calculated from the UV-vis absorption at 280 nm, ε280 nm=5,690 M^−1 cm^−1 for all peptides except D6 and D7, ε280 nm=11,380 M^−1 cm^−1 based on an extinction coefficient for the tryptophan sidechain chromophore of 5,690 M^−1 cm^−1).^33 Peptide stock solutions were prepared in degassed water to a concentration of 200 μM. […] A portion (75 μL) of the quenched reaction mixture was injected onto an analytical RP-HPLC (see peptide synthesis and purification section above), and peaks were analyzed. The time course of peptide degradation was experimentally determined by integrating the area of the peak corresponding to the non-hydrolyzed peptide in a series of HPLC traces, with duplicate proteolysis reactions being used to generate error bars corresponding to the standard deviation. […]

PTHR = target: T4, PTHR (Homo sapiens, UniProt Q03431); experiment: cAMP induction potency, N-terminal modifications and cyclic constraints (Tables 9, 10, 13); type: cell-based; settings: Table 9
T4 construct: expressed in transfected cells
T4 sequence (Q03431 27-593): T2 sequence (Q03431 27-593)
Experimental: For cAMP dose-response assays, monolayers of confluent HEK 293 cells were pre-incubated with buffer containing d-luciferin (0.5 mM) in 96 well plates at room temperature until a stable baseline level of luminescence was established (30 min). Varying concentrations of agonist were then added, and the time course of luminescence response was recorded using a Perkin Elmer plate reader following α/β-peptide addition.

[1] = Table 2, read-out: R^0 IC50, nM, Binding (rPTHR-1)
[2] = Table 5, rat PTHR-1, mean ± SEM, read-out: R^0 -log (IC50) (converted)

| IC50 (R^0 form of human PTHR-1; Table 1, COS-7 membranes, 125I-PTH(1-34) tracer, GTPγS, read-out: R^0 IC50, nM, Binding (hPTHR-1)) | Compound | IC50 (R^0 form of rat PTHR-1; [1]) | IC50 (R^0 form of rat PTHR-1; [2]) | R^0/RG (R^0 form of rat PTHR-1; Table 5) | affinity for the R^0 state of rPTHR-1, in words (R^0 form of rat PTHR-1) | R^0/RG (R^0 form of human PTHR-1) | affinity for the R^0 state of hPTHR-1, in words (R^0 form of human PTHR-1) | proteolysis by trypsin (trypsin) | Fold PTH (PTHR) | EC50 (PTHR; read-out: EC50, nM (cAMP induction potency)) | IC50 (R^0 form of human PTHR-1) |
| --- | --- | --- | --- | --- | --- | --- | --- | --- | --- | --- | --- |
| 19 nM | CC[C@H](C)[C@H](NC(=O)[C@H](CCC(=O)O)NC(=O)[C@H](CO)NC(=O)[C@@H](NC(=O)[C@@H](N)CO)C(C)C)C(=O)N[C@@H](CCC(N)=O)C(=O)N[C@@H](CC(C)C)C(=O)N[C@@H](CCSC)C(=O)N[C@@H](Cc1c[nH]cn1)C(=O)N[C@@H](CC(N)=O)C(=O)N[C@@H](CC(C)C)C(=O)NCC(=O)N[C@@H](CCCCN)C(=O)N[C@@H](Cc1c[nH]cn1)C(=O)N[C@@H](CC(C)C)C(=O)N[C@@H](CC(N)=O)CC(=O)N[C@@H](CO)C(=O)N[C@@H](CCSC)C(=O)N[C@@H](CCC(=O)O)C(=O)N[C@@H](CCCNC(=N)N)CC(=O)N[C@H](C(=O)N[C@@H](CCC(=O)O)C(=O)N[C@@H](Cc1c[nH]c2ccccc12)C(=O)N[C@H](CC(=O)N[C@@H](CCCNC(=N)N)C(=O)N[C@@H](CCCCN)C(=O)N[C@@H](CCCCN)C(=O)N[C@H](CC(=O)N[C@@H](CCC(N)=O)C(=O)N[C@@H](CC(=O)O)C(=O)N[C@H](C(=O)N[C@@H](CCC(N)=O)CC(=O)N[C@@H](CC(N)=O)C(=O)N[C@@H](Cc1ccccc1)C(N)=O)C(C)C)CC(C)C)CC(C)C)C(C)C [B5] | 65 nM | 66.1 nM | 15 | significantly weaker affinity | 225 | an order of magnitude more weakly | – | – | – | – |
| – | CC[C@H](C)[C@H](NC(=O)[C@H](CCC(=O)O)NC(=O)[C@H](CO)NC(=O)[C@@H](NC(=O)[C@@H](N)CO)C(C)C)C(=O)N[C@@H](CCC(N)=O)C(=O)N[C@@H](CC(C)C)C(=O)N[C@@H](CCSC)C(=O)N[C@@H](Cc1cnc[nH]1)C(=O)N[C@@H](CC(N)=O)C(=O)N[C@@H](CC(C)C)C(=O)NCC(=O)N[C@@H](CCCCN)C(=O)N[C@@H](Cc1cnc[nH]1)C(=O)N[C@@H](CC(C)C)C(=O)N[C@@H](CC(N)=O)C(=O)N[C@@H](CO)C(=O)N[C@@H](CCSC)C(=O)N[C@@H](CCC(=O)O)C(=O)N[C@@H](CCCN=C(N)N)C(=O)N[C@H](C(=O)N[C@@H](CCC(=O)O)C(=O)N[C@@H](Cc1c[nH]c2ccccc12)C(=O)N[C@@H](CC(C)C)C(=O)N[C@@H](CCCN=C(N)N)C(=O)N[C@@H](CCCCN)C(=O)N[C@@H](CCCCN)C(=O)N[C@@H](CC(C)C)C(=O)N[C@@H](CCC(N)=O)C(=O)N[C@@H](CC(=O)O)C(=O)N[C@H](C(=O)N[C@@H](Cc1cnc[nH]1)C(=O)N[C@@H](CC(N)=O)C(=O)N[C@@H](Cc1ccccc1)C(=O)O)C(C)C)C(C)C [PTH(1-34), reference compound] | – | – | – | – | – | – | Proteolysis was observed at all predicted trypsin cut sites | – | – | – |
| – | CC[C@H](C)[C@H](NC(=O)[C@H](CCC(=O)O)NC(=O)[C@H](CO)NC(=O)[C@@H](NC(=O)[C@@H](N)CO)C(C)C)C(=O)N[C@@H](CCC(N)=O)C(=O)N[C@@H](CC(C)C)C(=O)N[C@@H](CCSC)C(=O)N[C@@H](Cc1cnc[nH]1)C(=O)N[C@@H](CC(N)=O)C(=O)N[C@@H](CC(C)C)C(=O)NCC(=O)N[C@@H](CCCCN)C(=O)N[C@H](CC(=O)N[C@@H](CC(C)C)C(=O)N[C@@H](CC(N)=O)C(=O)N[C@@H](CO)C(=O)N[C@@H](CCSC)CC(=O)N[C@@H](CCC(=O)O)C(=O)N[C@@H](CCCNC(=N)N)C(=O)N[C@H](C(=O)N[C@@H](CCC(=O)O)CC(=O)N[C@@H](Cc1c[nH]c2ccccc12)C(=O)N[C@@H](CC(C)C)C(=O)N[C@@H](CCCNC(=N)N)C(=O)N[C@@H](CCCCN)CC(=O)N[C@@H](CCCCN)C(=O)N[C@@H](CC(C)C)C(=O)N[C@@H](CCC(N)=O)C(=O)N[C@@H](CC(=O)O)CC(=O)N[C@H](C(=O)N[C@@H](Cc1cnc[nH]1)C(=O)N[C@@H](CC(N)=O)C(=O)N[C@H](CC(N)=O)Cc1ccccc1)C(C)C)C(C)C)Cc1c[nH]c2ccccc12 [D6] | 6.1 nM | 6.03 nM | 8 | somewhat weaker affinity | 31 | comparably to PTH(1-34) | poorer substrate than is the α-peptide | 2.1 | 0.17 ± 0.05 nM | 2 nM |
